Test systems include CCRF-CEM; COLO 205; EKVX; HOP-62; HOP-92; KM12; NCI-H460; SF-268; SF-295; SK-MEL-2; SK-OV-3; SNB-19; U-251; UO-31; DU-145; MCF7; PC-3; MDA-MB-231; MDA-MB-435.
Holding throughout (assay): inhibition of tumour cell growth, NCI panel, 48 h

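Values below derive from 48-hour exposures of cells grown in 96-well plates, with endpoints linearly interpolated between the two concentrations bracketing the appropriate inhibition level. Abbreviation: GI50, concentration required for 50% inhibition of growth.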 Calls of active or inactive are those of the source. Cut-off read from the data, not from the text of the source: active = GI50 up to about 1.1 µM and inactive = higher.

`C/C(=N\NS(=O)(=O)c1ccc([N+](=O)[O-])cc1)c1ccc[n+]([O-])n1`: the GI50 in the experiment with CCRF-CEM is 3.05 µM (inactive); in the experiment on COLO 205 it was 2.67 µM (inactive); in the experiment with EKVX, 6.9 µM (inactive); with HOP-62 it was 2.09 µM (inactive); in the experiment with HOP-92 it was 2.94 µM (inactive); in the experiment with KM12, 2.39 µM (inactive). Besides, the GI50 in the experiment with NCI-H460 was 0.776 µM (active); in the experiment on SF-268, 2.33 µM (inactive); in the experiment on SF-295, 1.9 µM (inactive); in the experiment with SK-MEL-2, 1.92 µM (inactive); with SK-OV-3, 2.64 µM (inactive); in the experiment on SNB-19, 3.24 µM (inactive). The values for the GI50 in the experiment on U-251 and with UO-31 were 1.86 µM (inactive) and 2.64 µM (inactive), respectively.

Consider `NC1N=Nc2ccccc21` (stereo unspecified), for which the GI50 in the experiment with CCRF-CEM, with COLO 205, with EKVX, in the experiment on HOP-62, in the experiment on HOP-92 and in the experiment with KM12 was > 100 µM (inactive) in each case. Moreover, the GI50 in the experiment on NCI-H460, in the experiment with SF-268, with SF-295, in the experiment on SK-MEL-2, in the experiment with SK-OV-3 and in the experiment on SNB-19 was > 100 µM (inactive) in each case. Moreover, the GI50 with U-251 and with UO-31 was > 100 µM (inactive) in each case.

In the case of `CCCCCCCCCCCCCC(=S)N/C=C/OC`, the GI50 was 21.4 µM (inactive) in the experiment on CCRF-CEM; 27.1 µM (inactive) in the experiment with COLO 205; 31 µM (inactive) with EKVX; 48 µM (inactive) in the experiment with HOP-62; 25.8 µM (inactive) in the experiment with HOP-92; 28.2 µM (inactive) in the experiment on KM12. Besides, the GI50 is 29.3 µM (inactive) in the experiment on NCI-H460; 43 µM (inactive) in the experiment with SF-268; 30.2 µM (inactive) in the experiment with SF-295; 32 µM (inactive) with SK-MEL-2; > 100 µM (inactive) in the experiment with SK-OV-3; 45.9 µM (inactive) in the experiment with SNB-19. The GI50 in the experiment with U-251 was 21.4 µM (inactive); with UO-31, 31 µM (inactive).

Turning to `O=C1c2ccccc2-c2nc3ccc(O)cc3n21`, the GI50 in the experiment on CCRF-CEM, in the experiment with COLO 205, in the experiment with DU-145, in the experiment on EKVX, with HOP-62 and in the experiment on HOP-92 was > 100 µM (inactive) throughout. Moreover, the GI50 with KM12, with MCF7, in the experiment on NCI-H460, in the experiment on PC-3, in the experiment with SF-268 and with SF-295 was > 100 µM (inactive) throughout. Besides, the GI50 in the experiment on SK-MEL-2, in the experiment with SK-OV-3, in the experiment with SNB-19, in the experiment with U-251 and with UO-31 was > 100 µM (inactive) in each case.

In the case of `COc1ccc(/C=C/c2cc(OC)c(O[Si](C)(C)C(C)(C)C)c(OC)c2)cc1`, the GI50 in the experiment with CCRF-CEM was 58.7 µM (inactive); in the experiment with COLO 205 it was > 100 µM (inactive); in the experiment on EKVX, > 100 µM (inactive); in the experiment on HOP-62 it was > 100 µM (inactive); in the experiment with HOP-92 it was 29.9 µM (inactive); with KM12, > 100 µM (inactive). Moreover, the GI50 in the experiment on NCI-H460 was 42.2 µM (inactive); with SF-268, > 100 µM (inactive); with SK-MEL-2, > 100 µM (inactive); in the experiment with SK-OV-3, > 100 µM (inactive); with SNB-19 it was > 100 µM (inactive); in the experiment with U-251, 98.6 µM (inactive). The GI50 with UO-31 is > 100 µM (inactive).

For `CC(C)(C)OC(=O)CN1CCNCCN(CC(=O)OC(C)(C)C)CCNCC1`, the GI50 was 57 µM (inactive) in the experiment on CCRF-CEM; > 100 µM (inactive) in the experiment with COLO 205; > 100 µM (inactive) with DU-145; > 100 µM (inactive) with EKVX; > 100 µM (inactive) in the experiment with HOP-62; > 100 µM (inactive) in the experiment on HOP-92. Also, the GI50 is 98.9 µM (inactive) in the experiment on KM12; > 100 µM (inactive) in the experiment with MCF7; > 100 µM (inactive) with MDA-MB-231; 98.9 µM (inactive) with MDA-MB-435; 63.2 µM (inactive) in the experiment with NCI-H460; > 100 µM (inactive) in the experiment with PC-3. Further, the GI50 in the experiment with SF-295 is > 100 µM (inactive); in the experiment with SK-MEL-2 it was > 100 µM (inactive); in the experiment on SK-OV-3, > 100 µM (inactive); in the experiment with SNB-19, > 100 µM (inactive); in the experiment on U-251 it was 78.2 µM (inactive); in the experiment on UO-31 it was > 100 µM (inactive).

As for `O=C1C(Cl)C(c2ccc(O)cc2)N1n1cnc2ccccc2c1=O` (stereo unspecified), the GI50 in the experiment on CCRF-CEM is 26.3 µM (inactive); in the experiment on COLO 205, 25.3 µM (inactive); in the experiment with EKVX, 29.7 µM (inactive); with HOP-62 it was > 100 µM (inactive); in the experiment on HOP-92, 38.2 µM (inactive); in the experiment with KM12, 51.1 µM (inactive). For the same molecule, the GI50 with NCI-H460 was 33.1 µM (inactive); in the experiment with SF-268 it was 45.6 µM (inactive); with SF-295 it was 98.4 µM (inactive); in the experiment on SK-MEL-2 it was 26.9 µM (inactive); with SK-OV-3, > 100 µM (inactive); in the experiment on SNB-19, > 100 µM (inactive). Besides, the GI50 is 45.4 µM (inactive) in the experiment with U-251 and 55.1 µM (inactive) in the experiment with UO-31.

Turning to `CCOC(=O)N/N=C(\Cc1ccccc1)OCC`, the GI50 in the experiment on CCRF-CEM, in the experiment on COLO 205, in the experiment on DU-145, with EKVX, in the experiment on HOP-62 and in the experiment with HOP-92 was > 100 µM (inactive) in each case. Further, the GI50 in the experiment with KM12, in the experiment on MCF7, in the experiment on MDA-MB-231, with MDA-MB-435, in the experiment with PC-3 and in the experiment on SF-268 was > 100 µM (inactive) throughout. Moreover, the GI50 with SF-295, in the experiment with SK-MEL-2, in the experiment with SK-OV-3, with SNB-19, in the experiment with U-251 and in the experiment on UO-31 was > 100 µM (inactive) each time.

For the molecule `CC(=O)N/N=C1\CC(C)(C)C2CCC1C2` (stereo unspecified), the GI50 in the experiment on CCRF-CEM, in the experiment with COLO 205, in the experiment with EKVX, in the experiment with HOP-62, in the experiment on HOP-92 and in the experiment on KM12 was > 100 µM (inactive) each time. The GI50 in the experiment with NCI-H460, in the experiment on SF-268, in the experiment on SF-295, in the experiment on SK-MEL-2, in the experiment with SK-OV-3 and with SNB-19 was > 100 µM (inactive) in each case. The GI50 in the experiment with U-251 and with UO-31 was > 100 µM (inactive) in each case.

Regarding `COc1ccc(C2Oc3ccc(O)cc3[C@@H]2C)cc1OC` (stereo partly specified), the GI50 is 17.5 µM (inactive) with CCRF-CEM; > 100 µM (inactive) in the experiment with COLO 205; > 100 µM (inactive) in the experiment with EKVX; > 100 µM (inactive) with HOP-62; 23 µM (inactive) in the experiment on HOP-92; > 100 µM (inactive) with KM12. Moreover, the GI50 in the experiment on NCI-H460, in the experiment with SF-268, in the experiment on SF-295, with SK-MEL-2, with SK-OV-3 and in the experiment on SNB-19 was > 100 µM (inactive) in each case. The GI50 in the experiment on U-251 is > 100 µM (inactive); in the experiment with UO-31 it was 63.1 µM (inactive).

Regarding `CCCCCCCCCCCOC(=S)NC(C)C`, the GI50 with CCRF-CEM is 23.5 µM (inactive); with EKVX it was 20.9 µM (inactive); with HOP-62, 20.1 µM (inactive); with HOP-92 it was 14.1 µM (inactive); in the experiment on KM12, 19.7 µM (inactive); in the experiment with NCI-H460, 21.3 µM (inactive). For the same molecule, the GI50 in the experiment on SF-268 is 21.2 µM (inactive); in the experiment with SF-295 it was 21 µM (inactive); in the experiment on SK-MEL-2 it was 19.2 µM (inactive); in the experiment with SK-OV-3, 19.3 µM (inactive); with SNB-19, 29.6 µM (inactive); in the experiment with U-251, 15.8 µM (inactive). In addition, the GI50 with UO-31 is 15.8 µM (inactive).

Turning to `CC(C)(C)OC(=O)NC(Cc1ccc(O)cn1)C(N)=O` (stereo unspecified), the GI50 is > 10 µM (inactive) in the experiment with CCRF-CEM; > 100 µM (inactive) with COLO 205; > 100 µM (inactive) in the experiment on DU-145; > 100 µM (inactive) in the experiment on EKVX; > 100 µM (inactive) with HOP-62; > 100 µM (inactive) in the experiment on HOP-92. Besides, the GI50 in the experiment with KM12, in the experiment on MCF7, in the experiment with MDA-MB-231, in the experiment with MDA-MB-435, with NCI-H460 and in the experiment with PC-3 was > 100 µM (inactive) each time. Also, the GI50 with SF-268, with SF-295, in the experiment on SNB-19, with U-251 and in the experiment on UO-31 was > 100 µM (inactive) throughout.

Consider `O=C(Cc1ccccc1)c1ccc2[nH]c(=O)oc2c1`, for which the GI50 with CCRF-CEM is > 100 µM (inactive); in the experiment on COLO 205, 66.2 µM (inactive); in the experiment on DU-145, 62.2 µM (inactive); with EKVX it was 12.5 µM (inactive); with HOP-62, 90.6 µM (inactive); in the experiment with KM12, 19 µM (inactive). Moreover, the GI50 in the experiment on MCF7 was 43.5 µM (inactive); in the experiment on MDA-MB-231 it was 36.1 µM (inactive); in the experiment with MDA-MB-435, 33.7 µM (inactive); with NCI-H460 it was 38.8 µM (inactive); in the experiment with PC-3, 41.3 µM (inactive); with SF-268 it was 16.5 µM (inactive). Also, the GI50 is 38.2 µM (inactive) in the experiment with SF-295, 32.6 µM (inactive) with SK-MEL-2, 76.2 µM (inactive) in the experiment on SK-OV-3 and 16.8 µM (inactive) in the experiment on U-251.

Source of the values: ChEMBL document CHEMBL1201862, “PubChem BioAssay data set” (2004).
